The text below walks through data of patent US20120276098A1, “DRUG FUSIONS AND CONJUGATES WITH EXTENDED HALF LIFE” (priority 2009, published 2012).

The term EC50 denotes the concentration that produces a half-maximal response.

Test [1] has as its target T1, GLP1R (Homo sapiens, UniProt P43220). As to the kind of experiment: melanophore functional bioassay, human GLP1R. The format is cell-based. Further details: expressed in transfected cells; host or cells: melanophores. Particulars: melanophores transfected with receptor. The protocol: (§1) The bioassay was performed essentially as described in Jayawickreme et al. (2005) Current Protocols in Pharmacology 12.9.1-12.9.16.

The target in test [2] is T1, GLP1R. As to the kind of experiment: GLP-1 receptor binding assay (GLP-1R BA), CHO 6CRE GLP1R luciferase reporter cells. Further details: expressed in transfected cells; host or cells: CHO K1 (CHO 6CRE GLP1R cells). The format is cell-based. The protocol: Fusions were buffer exchanged into 100 mM […], 20 mM citrate pH 6.2. Meanwhile,CHO 6CRE GLP1R cells (CHO K1 cells (obtainable from the American Type Tissue Collection, ATCC) stably transfected with 6 cAMP response element driving a luciferase reporter gene and also with the human GLP-1 receptor) were seeded at 2×10^5cells/mL in suspension media. Suspension culture was maintained for 24 hours. Cells were then diluted into 15 mM HEPES buffer (obtainable from Sigma), containing 2 mM L glutamine (2.5×10^5 cells/ml) and dispensed into 384-well plates containing 10 ul/well of the compound to be assayed. After the addition of assay control, plates were returned to the incubator for 3 h at 37° C. and 5% CO2. […] Plates were placed in the reader (Viewlux, Perkin Elmer) and pre-incubated for 5 minutes prior to reading the […] and plotting of results. Compound was assayed at a range of concentrations in the presence and absence of 10 uM albumin, allowing a dose response curve to be fitted with and without the albumin.

Test [3] has as its system diet induced obese (DIO) C57BL/6 mice. The experiment in a line: Chronic obesity efficacy study in diet induced obese (DIO) mice, peptide-AlbudAbs alone and combined. The class given is in vivo, mouse. The protocol: Male diet induced obese (DIO) C57BL/6 mice (Taconic, Hudson, N.Y.) and lean C57BL/6 mice (Taconic, Hudson, N.Y.) were used for all experiments. DIO C57BL/6 mice were group housed and fed a high fat diet (45% fat by kcal) by the vendor from the time of weaning. DIO mice (40-50 g body weight) and age-matched controls were single-housed and maintained at constant temperature (approximately 22° C.) with 12 hr light/dark cycle (lights on from 5:00 AM to 5:00 PM). Mice were given ad libitum access to food (Research Diets D12451, 45% fat for DIO; Lab Diet 5001, 13.5% fat for lean) and water. All animal protocols were approved by the institutional animal care and use committee at GlaxoSmithKline in Research Triangle Park, N.C. The peptide-AlbudAbs were either prepared fresh daily or were prepared once and frozen at −70 deg C. in aliquots. For combination dosing, the drugs were mixed together so that only one injection would be required.
Chronic Obesity Efficacy Studies: DIO C56BL/6 mice and age-matched lean controls were habituated in house for 6 weeks before the start of the study. Animals were dosed every two days between 2-4 pm subcutaneously with a dose volume of 5 ml/kg over a period of 15 days.
A three day vehicle lead in period was used before the start of drug with the first day being vehicle and the second two days being mock injections. Baseline fat mass and lean mass measurements were taken 3-4 days before the start of drug and on day 15 using a QMR instrument (Echo Medical Systems, Houston, Tex.) Body weight measurements were taken every Monday, Wednesday, and Friday starting four days before the first drug dose, with the first measurement being used to randomize the animals. Food hopper weights were measured every weekday starting 4-6 days before the first drug dose, allowing for the calculation of food intake. Animals that created excessive food spillage were removed prior to the beginning of the study. During the study, excess food was removed from the cage and added to the food hopper weights for increased accuracy. Eight to ten animals (n=8-10) were used for the lean control group and eight animals (n=8) were used for all other treatment groups. Sixteen days after the start of drug treatment, animals were fasted for at least 4 hours before collection of whole blood, plasma, and serum samples via terminal cardiac exsanguinations. The whole blood was used to determine the % HbAlc, the plasma was used for a gastrointestinal hormone panel, and the serum was used to access multiple clinical chemistry parameters. Finally, major organs and tissues were collected (heart, kidney, liver, lung, stomach, duodenum, colon, pancreas, brown adipose, white adipose, carcass) on day 16 and fixed in 10% neutral buffered formalin for macroscopic and microscopic histological examination.

Test [4] concerns the target T2, GLP1R (Mus musculus, UniProt O35659).
T2 construct: expressed in transfected cells; host or cells: melanophores
T2 sequence (O35659 22-463): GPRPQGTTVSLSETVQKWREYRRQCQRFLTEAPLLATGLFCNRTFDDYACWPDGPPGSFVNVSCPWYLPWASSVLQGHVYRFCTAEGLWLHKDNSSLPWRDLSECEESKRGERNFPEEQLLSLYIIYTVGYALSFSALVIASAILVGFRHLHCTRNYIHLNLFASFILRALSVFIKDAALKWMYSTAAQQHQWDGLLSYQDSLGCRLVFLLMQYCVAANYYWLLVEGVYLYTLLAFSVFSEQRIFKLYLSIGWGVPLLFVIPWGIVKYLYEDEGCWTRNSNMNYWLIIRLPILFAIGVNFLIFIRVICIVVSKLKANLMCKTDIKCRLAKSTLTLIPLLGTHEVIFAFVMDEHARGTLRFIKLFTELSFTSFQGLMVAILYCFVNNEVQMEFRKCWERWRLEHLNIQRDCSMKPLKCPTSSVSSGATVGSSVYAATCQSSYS
As to the kind of experiment: melanophore functional bioassay, mouse GLP1R. The class given is cell-based. Particulars: melanophores transfected with receptor. The protocol: as §1

Where [5] appears, read: ED80 Doses: PYY-Alb 1.0 mg/kg, Exn-Alb 0.1 mg/kg, Combo.
[6] abbreviates: day 16, ED80 doses: Exendin-4-AlbudAb 0.1 mg/kg, Combo ED80.

Where two headings read alike, the source gives them in different places. Marks after values point to notes of the source that are not given here.

T1 sequence (P43220 24-463): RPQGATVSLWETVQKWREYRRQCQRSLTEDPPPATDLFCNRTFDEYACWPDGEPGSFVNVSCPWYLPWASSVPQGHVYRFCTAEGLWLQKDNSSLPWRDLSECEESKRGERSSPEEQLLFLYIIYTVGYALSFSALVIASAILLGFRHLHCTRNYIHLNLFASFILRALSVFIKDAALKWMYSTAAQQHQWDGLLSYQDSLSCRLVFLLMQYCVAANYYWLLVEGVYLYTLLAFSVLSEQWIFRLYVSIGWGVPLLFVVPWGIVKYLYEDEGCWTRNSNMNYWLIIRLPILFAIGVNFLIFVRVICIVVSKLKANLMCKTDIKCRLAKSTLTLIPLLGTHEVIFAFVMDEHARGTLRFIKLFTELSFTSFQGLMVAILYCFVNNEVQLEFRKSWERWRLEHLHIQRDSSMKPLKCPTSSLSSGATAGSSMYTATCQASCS

For “DAT 0115: genetic fusion: exendin-4, (G4S)3 linker, 7h-14 AlbudAb, SEQ ID NO 2”, in test [1], the “pEC50 Human GLP1R” value is on record as 11.36. In test [2] (read-out: GLP-1R BA (10 uM albumin) EC50 (pM) n = 2, presence of 10 uM albumin), the EC50 was 38 pM. The EC50 in test [2] (read-out: GLP-1R BA EC50 (pM) n = 3, absence of albumin) was determined as 8 pM. Moreover, the “decrease in percent body fat (normalized to changes in vehicle controls)” value in test [3] (15 day treatment, ED20 doses: PYY-AlbudAb 0.1 mg/kg, Exendin-4-AlbudAb 0.01 mg/kg, Combo ED20) turned out to be 0.6%. For the same substance, in test [3] (15 day treatment, ED80 doses: PYY-AlbudAb 1.0 mg/kg, Exendin-4-AlbudAb 0.1 mg/kg, Combo ED80), the “decrease in percent body fat” value is listed as 6.8%. Moreover, the “Insulin % Change from DIO Vehicle” value in test [3] (ED80 Doses: Exn-Alb 0.1 mg/kg, Combo) was “↓-56%”. In test [3] (setting [5]), the “ALT % Change from DIO Vehicle” value is recorded as “↓-57%*”, the “AST % Change from DIO Vehicle” value is on record as “↓-41%*”, the “Creatinine % Change from DIO Vehicle” value is on record as “↓-17%*” and the “Glucose % Change from DIO Vehicle” value is given as “↓-27%*”. Moreover, in test [3] (setting [5]), the “Total Bilirubin % Change from DIO Vehicle” value is “↑21%*” and the “Total Cholesterol % Change from DIO Vehicle” value is recorded as “↓-24%*”. Moreover, the Ghrelin levels result in test [3] (Exendin-4-AlbudAb monotherapy groups, level approximately equal to the combination groups) is given as “elevated”. Further, the “decrease in body weight relative to vehicle” value in test [3] (day 7, ED80 doses: PYY-AlbudAb 1.0 mg/kg, Exendin-4-AlbudAb 0.1 mg/kg, Combo ED80 = both mixed) was 13.0%. The “inhibition of feeding / food intake” value in test [3] (day 14, ED80 doses: PYY-AlbudAb 1.0 mg/kg, Exendin-4-AlbudAb 0.1 mg/kg, Combo ED80) is 0.8%. Also, in test [3] (day 15, ED20 doses: PYY-AlbudAb 0.1 mg/kg, Exendin-4-AlbudAb 0.01 mg/kg, Combo ED20 = both mixed, s.c. every two days), the “decrease in body weight vs. vehicle” value is 4.5%. The “decrease in body weight from vehicle” value in test [3] (day 15, ED80 doses: PYY-AlbudAb 1.0 mg/kg, Exendin-4-AlbudAb 0.1 mg/kg, Combo ED80 = both mixed) was 16.8%. For the same substance, the “microscopic change in brown adipose tissue (histopathology)” value in test [3] (day 16, Combo ED20, Exendin-4-AlbudAb 0.01 mg/kg) is reported as “decreased cytoplasmic lipid droplets”. Moreover, the “microscopic change in brown adipose tissue (histopathology)” value in test [3] (day 16, Combo ED80, PYY-AlbudAb 1.0 mg/kg, Exendin-4-AlbudAb 0.1 mg/kg, Exendin-4 0.1 mg/kg) is reported as “decreased cytoplasmic lipid droplets”. Moreover, in test [3] (setting [6]), the “Amylin levels in plasma” value came to 163 pg/mL and the “Leptin levels in plasma” value was 31.4 ng/mL. For the same substance, in test [3] (treatment period, ED20 doses: PYY-AlbudAb 0.1 mg/kg, Exendin-4-AlbudAb (dose not given), Combo ED20), the fat mass lost worked out at 1.4 grams. Besides, the body fat lost in test [3] (treatment period, ED80 doses: PYY-AlbudAb 1.0 mg/kg, Exendin-4-AlbudAb (dose not given), Combo ED80) worked out at 5.7 grams. Besides, the “pEC50 Mouse GLP1R” value in test [4] was found to be 11.06.
